Laboratory results as given in patent publication US20260373266A1, “PROTEIN DEGRADERS AND USES THEREOF” (KYMERA THERAPEUTICS, INC., priority 2022, published 2026).

Target: T1, DCAF1 WD40 domain (residues 1077-1390) (Homo sapiens, UniProt Q9Y4B6)
T1 construct: DCAF1 WD40 domain (residues 1077-1390)
Test: DCAF1 binding assay by SPR (Biacore 8K+), DCAF1-3 KD
Details: 25 °C, read-out: DCAF1-3 SPR (KD)

T1 sequence (Q9Y4B6 1077-1390): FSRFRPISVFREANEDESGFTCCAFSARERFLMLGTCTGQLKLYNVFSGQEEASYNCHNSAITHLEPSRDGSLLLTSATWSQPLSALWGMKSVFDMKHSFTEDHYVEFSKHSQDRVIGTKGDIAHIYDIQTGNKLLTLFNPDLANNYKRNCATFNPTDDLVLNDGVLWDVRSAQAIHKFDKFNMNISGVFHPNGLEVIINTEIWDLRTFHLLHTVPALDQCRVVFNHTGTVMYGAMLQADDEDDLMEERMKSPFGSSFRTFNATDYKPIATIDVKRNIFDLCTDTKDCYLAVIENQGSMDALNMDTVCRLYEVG

Q: With O[C@@H]1CCCN(c2ccnc(N3CC[C@@H]4[C@H]3CCCN4c3cccc(F)c3)c2)C1 [I-794] as the compound, how does the Kd read?
A: < 10 µM

Q: How did the Kd turn out when NC(=O)C[C@H](NC(=O)c1c[nH]nc1-c1ccccc1O)c1cccc(Cl)c1 [I-229] was run?
A: > 200 µM

Q: Which Kd does the source give for C=CC(=O)Nc1ccc2[nH]cc(C(=O)N[C@@H](CC(N)=O)c3cccc(Cl)c3)c2c1 [I-475] here?
A: > 200 µM

Q: O=c1[nH]cc(C2CCOCC2)cc1N[C@@H]1CCCN(c2cccc(F)c2)C1 [I-646] was tested. Which Kd did it give?
A: 10 to 100 µM

Q: Which Kd does the source give for O=C(C[C@H](NC(=O)c1cn[nH]c1-c1ccccc1F)c1cccc(Cl)c1)NCc1ccccc1 [I-84] here?
A: 10 to 100 µM

Q: Which Kd does the source give for C=CC(=O)N1CC(N(C)c2ccnc(N[C@@H]3CCCN(c4cccc(F)c4)C3)c2)C1 [I-457] here?
A: 10 to 100 µM

Q: For Cc1ccccc1N1CCC[C@@H](Nc2cc(N3CCOCC3)ncn2)C1 [I-4], which Kd is on record?
A: > 200 µM

Q: Which Kd does the source give for OC[C@@H]1CCN(c2cccc(F)c2)C[C@H]1Nc1cc(N2CCCCC2)ccn1 [I-990] here?
A: 10 to 100 µM

Q: How did the Kd turn out when Cc1cccc(C)c1-c1[nH]ncc1C(=O)N[C@@H](CC(N)=O)c1cccc(Cl)c1 [I-595] was run?
A: < 10 µM

Q: With Cc1ccc(-c2[nH]ncc2C(=O)N[C@@H](CC(N)=O)c2cccc(Cl)c2)cc1 [I-103] as the compound, how does the Kd read?
A: < 10 µM

Q: How did the Kd turn out when NC(=O)CCc1ccc(F)c(-c2[nH]ncc2C(=O)N[C@@H](CC(N)=O)c2cccc(Cl)c2)c1 [I-522] was run?
A: 10 to 100 µM

Q: For C=CC(=O)N1CCC(N(C)c2ccnc(N[C@@H]3CCCN(c4cccc(F)c4)C3)c2)CC1 [I-460], which Kd is on record?
A: 10 to 100 µM

Q: How did the Kd turn out when NC(=O)C[C@H](NC(=O)c1cn[nH]c1-c1ccccc1F)c1cccnc1 [I-131] was run?
A: > 200 µM

Q: NCCOCCOCCOCCOCCOCC(=O)c1[nH]cc(C(=O)N[C@@H](CC(N)=O)c2cccc(Cl)c2)c1-c1ccccc1F [I-675] was tested. Which Kd did it give?
A: < 10 µM

Q: For c1ccc(N2CCC[C@H]3[C@@H]2CCN3c2cc(N3CC4CC(C4)C3)ccn2)cc1 [I-710], which Kd is on record?
A: 10 to 100 µM

Q: With CCCCN1CCN(c2ccnc(NC3CCCN(c4cccc(F)c4)C3)n2)CC1 (stereo not drawn) [I-26] as the compound, how does the Kd read?
A: > 200 µM

Q: For c1cc2cc(N3CCC[C@@H](Nc4cc(N5CCOCC5)ncn4)C3)ccc2cn1 [I-401], which Kd is on record?
A: > 200 µM

Q: Cc1sc2c(c1C)C(c1ccc(Cl)cc1)=N[C@@H](CC(=O)NCCOCCOCCOCCOCCOCCOCCOCCn1cc(C(=O)N[C@@H](CC(N)=O)c3cccc(Cl)c3)c(-c3ccccc3F)n1)c1nnc(C)n1-2 [I-888] was tested. Which Kd did it give?
A: > 200 µM

Q: Which Kd does the source give for CCCCN1CCN(c2cc(N[C@@H]3CCCN(c4cccc(F)c4)C3)ncn2)CC1 [I-377] here?
A: > 200 µM

Q: With NC(=O)Cc1cccc(N2CCC[C@H]3[C@@H]2CCN3c2cc(N3CCCCC3)ccn2)c1 [I-942] as the compound, how does the Kd read?
A: < 10 µM

Q: For Cc1ccc(F)c(-c2[nH]ncc2C(=O)N[C@@H](CC(N)=O)c2cccc(Cl)c2)c1 [I-505], which Kd is on record?
A: < 10 µM

Q: NCCNC(=O)c1ccc(N2CCCCC2)cc1N[C@@H]1CCCN(c2cccc(F)c2)C1 [I-991] was tested. Which Kd did it give?
A: 10 to 100 µM

Q: Which Kd does the source give for NC(=O)C[C@H](NC(=O)c1cn[nH]c1C(=O)c1ccccc1)c1cccc(Cl)c1 [I-619] here?
A: < 10 µM

Q: Which Kd does the source give for CSc1ccc(N2CCC[C@@H](Nc3cc(N4CCOCC4)ccn3)C2)c(Cl)c1 [I-857] here?
A: > 200 µM

Q: With NC(=O)C[C@H](NC(=O)c1cnn(CC2CC2)c1-c1ccccc1F)c1cccc(Cl)c1 [I-133] as the compound, how does the Kd read?
A: 10 to 100 µM

Q: Which Kd does the source give for Fc1cccc(N2CCC[C@@H](Nc3cc([C@@H]4CCCCN4)ccn3)C2)c1 [I-124] here?
A: > 200 µM

Q: Which Kd does the source give for NC(=O)C[C@H](NC(=O)c1cn[nH]c1-c1oncc1O)c1cccc(Cl)c1 [I-161] here?
A: > 200 µM

Q: With Cc1c(F)ccc(F)c1-c1c(C(=O)N[C@@H](CC(N)=O)c2cccc(Cl)c2)cn(C)c1C(=O)c1ccc(OCCOCCOCCN)cc1 [I-1034] as the compound, how does the Kd read?
A: < 10 µM

Q: How did the Kd turn out when c1cc(N2CCOCC2)cc(N[C@@H]2CCCN(c3ccc4c(c3)CCC4)C2)n1 [I-872] was run?
A: > 200 µM

Q: CCOC(=O)Cc1ccc(N2CCC[C@@H](Nc3cc(N4CCOCC4)ccn3)C2)cn1 [I-782] was tested. Which Kd did it give?
A: > 200 µM

Q: Which Kd does the source give for C[S+]([O-])CN(c1cc(N2CCCOC2)ccn1)[C@H]1CCCN(c2cccc(F)c2)C1 (stereo partly drawn) [I-539] here?
A: 10 to 100 µM

Q: Which Kd does the source give for NC(=O)C[C@H](NC(=O)c1c[nH]nc1-c1cccc2ncnn12)c1cccc(Cl)c1 [I-237] here?
A: > 200 µM

Q: How did the Kd turn out when Fc1cccc(N2CCC[C@@H]3CN(c4cc(N5CCCCC5)ccn4)C[C@@H]32)c1 [I-668] was run?
A: 10 to 100 µM
